Source: patent US11530198B2, “Compositions and methods for treating infections” (priority 2016, dated 2022)
Like-named read-outs stand apart in the source and are kept apart here.

How the values were obtained:
[1] = molecular target: T. gondii DHFR (tgDHFR) (Toxoplasma gondii, UniProt Q07422)
[2] = molecular target: T. cruzi DHFR (tcDHFR) (Trypanosoma cruzi, UniProt Q27793); assay: DHFR inhibition assay (diaphorase/resazurin coupled), T. cruzi DHFR; type: biochemical; settings: for Average DHFR selectivity (h/tc): hDHFR IC50/tcDHFR IC50
[3] = molecular target: T. brucei DHFR (tbDHFR) (Trypanosoma brucei brucei, UniProt Q27783); assay: DHFR inhibition assay (diaphorase/resazurin coupled), T. brucei DHFR; type: biochemical; settings: for Average DHFR selectivity (h/tb)*-DHFR IC50: hDHFR IC50/tbDHFR IC50
[4] = molecular target: hDHFR (Homo sapiens (Human), UniProt P00374); assay: DHFR inhibition assay (diaphorase/resazurin coupled, fluorescence of resorufin), human DHFR; type: biochemical
Chain of hDHFR (P00374 whole entry): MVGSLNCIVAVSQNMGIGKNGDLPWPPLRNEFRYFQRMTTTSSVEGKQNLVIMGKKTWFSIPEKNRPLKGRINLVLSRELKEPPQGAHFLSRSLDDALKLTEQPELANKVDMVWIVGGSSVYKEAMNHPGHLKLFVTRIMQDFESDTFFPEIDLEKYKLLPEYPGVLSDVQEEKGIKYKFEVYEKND

In the case of `CCCc1nc(N)nc(N)c1N1CCN(c2ccc(OC)cn2)CC1` [Compound 60, 5-(4-(5-methoxypyridin-2-yl)piperazin-1-yl)-6-propylpyrimidine-2,4-diamine], the “Average DHFR selectivity (h/tg)” value ([1]; hDHFR IC50/tgDHFR IC50) is reported as 149.75.
For `CCCc1nc(N)nc(N)c1N1CCN(c2ccc(F)cc2)CC1` [Compound 52, 5-(4-(4-fluorophenyl)piperazin-1-yl)-6-propylpyrimidine-2,4-diamine], the “Average DHFR selectivity (h/tg)” value ([1]; hDHFR IC50/tgDHFR IC50) was 303.92.
For `CCc1nc(N)nc(N)c1N1CCN(c2cccc(OC)c2)CC1` [Compound 33, 6-ethyl-5-(4-(3-methoxyphenyl)piperazin-1-yl)pyrimidine-2,4-diamine], the “Average DHFR selectivity (h/tg)” value [1] was 120.23.
In the case of `CCc1nc(N)nc(N)c1N1CCN(c2ccc(C)cc2)CC1` [Compound 39, 6-ethyl-5-(4-(p-tolyl)piperazin-1-yl)pyrimidine-2,4-diamine], the “Average DHFR selectivity (h/tg)” value ([1]; hDHFR IC50/tgDHFR IC50) is reported as 144.58.
For `CN(C)c1ncc(-c2cccc(N3CCN(c4cnc(N)nc4N)CC3)c2)cn1` [Compound 96, 5-(4-(3-(2-(dimethylamino)pyrimidin-5-yl)phenyl)piperazin-1-yl)pyrimidine-2,4-diamine], the “Average DHFR selectivity (h/tg)” value ([1]; hDHFR IC50/tgDHFR IC50) was 115.48.
In the case of `CN(Cc1cnc2nc(N)nc(N)c2n1)c1ccc(C(=O)N[C@@H](CCC(=O)O)C(=O)O)cc1` [Methotrexate], the “tcDHFR pIC50-DHFR primary assay” value ([2]; Table 12, T. cruzi DHFR) is reported as 8.96.
In the case of `Nc1ncc(N2CCN(c3ccc(Cl)c(Cl)c3)CC2)c(N)n1` [Compound 1, 5-(4-(3,4-dichlorophenyl)piperazin-1-yl)pyrimidine-2,4-diamine], the “Average DHFR selectivity (h/tg)” value ([1]; hDHFR IC50/tgDHFR IC50) is reported as 5.5.
`Nc1ncc(N2CCN(c3cccc(-c4cnc(Cl)nc4)c3)CC2)c(N)n1` [Compound 100, 5-(4-(3-(2-chloropyrimidin-5-yl)phenyl)piperazin-1-yl)pyrimidine-2,4-diamine] was tested, and the “Average DHFR selectivity (h/tg)” value ([1]; hDHFR IC50/tgDHFR IC50) was 197.28 and the “Average DHFR selectivity (h/tb)*-DHFR IC50” value [3] was 522.
In the case of `Nc1ncc(N2CCN(c3cccc(-c4cnc(C5CC5)nc4)c3)CC2)c(N)n1` [Compound 86, 5-(4-(3-(2-cyclopropylpyrimidin-5-yl)phenyl)piperazin-1-yl)pyrimidine-2,4-diamine], the “Average DHFR selectivity (h/tb)*-DHFR IC50” value [3] is reported as 330.
In the case of `COc1ccc(N2CCN(c3cnc(N)nc3N)CC2)cc1` [Compound 114, 5-(4-(4-methoxyphenyl)piperazin-1-yl)pyrimidine-2,4-diamine], the “Average DHFR selectivity (h/tc)” value [2] is reported as 144.
In the case of `Nc1ncc(N2CCC(c3ccccc3)CC2)c(N)n1` [Compound 15, 5-(4-phenylpiperidin-1-yl)pyrimidine-2,4-diamine], the “Average DHFR selectivity (h/tg)” value ([1]; hDHFR IC50/tgDHFR IC50) is reported as 25.26.
In the case of `Nc1ncc(N2CCN(c3ccc(Cl)cc3)CC2)c(N)n1` [Compound 6, 5-(4-(4-chlorophenyl)piperazin-1-yl)pyrimidine-2,4-diamine], the “tgDHFR pIC50-DHFR primary assay” value [1] is reported as 7.34 and the “hDHFR pIC50-DHFR primary assay” value ([4]; Table 11) is reported as 5.96.
In the case of `Nc1ncc(N2CCN(c3ccc(C(F)(F)F)cc3)CC2)c(N)n1` [Compound 115, 5-(4-(4-(trifluoromethyl)phenyl)piperazin-1-yl)pyrimidine-2,4-diamine], the “Average DHFR selectivity (h/tc)” value [2] is reported as 132.
`CCCc1nc(N)nc(N)c1N1CCC(c2ccccc2)CC1` [Compound 51, 5-(4-phenylpiperidin-1-yl)-6-propylpyrimidine-2,4-diamine] was tested, and the “Average DHFR selectivity (h/tg)” value ([1]; hDHFR IC50/tgDHFR IC50) was 241.03.
With `CCc1nc(N)nc(N)c1N1CCN(c2ccc(F)cn2)CC1` [Compound 44, 6-ethyl-5-(4-(5-fluoropyridin-2-yl)piperazin-1-yl)pyrimidine-2,4-diamine] the “Average DHFR selectivity (h/tg)” value ([1]; hDHFR IC50/tgDHFR IC50) was 71.23.
For `Cc1ncc(-c2cccc(C3CCN(c4cnc(N)nc4N)CC3)c2)cn1` [Compound 94, 5-(4-(3-(2-methylpyrimidin-5-yl)phenyl)piperidin-1-yl)pyrimidine-2,4-diamine], the “tbDHFR pIC50-DHFR primary assay” value ([3]; Table 13, T. brucei DHFR) was 9.05, the “Average DHFR selectivity (h/tb)*-DHFR IC50” value [3] was 357 and the “hDHFR pIC50-DHFR primary assay” value ([4]; Table 13) was 6.49.
In the case of `N#Cc1cccc(-c2cccc(N3CCN(c4cnc(N)nc4N)CC3)c2)c1` [Compound 67, 3′-(4-(2,4-diaminopyrimidin-5-yl)piperazin-1-yl)-[1,1′-biphenyl]-3-carbonitrile], the “Average DHFR selectivity (h/tg)” value ([1]; hDHFR IC50/tgDHFR IC50) is reported as 77.18.
For `Nc1ncc(N2CCN(c3ccc(F)cc3)CC2)c(N)n1` [Compound 116, 5-(4-(4-fluorophenyl)piperazin-1-yl)pyrimidine-2,4-diamine], the “Average DHFR selectivity (h/tc)” value [2] was 100.
For `CCc1nc(N)nc(N)c1N1CCN(c2cccc(C)c2)CC1` [Compound 31, 6-ethyl-5-(4-(m-tolyl)piperazin-1-yl)pyrimidine-2,4-diamine], the “Average DHFR selectivity (h/tg)” value ([1]; hDHFR IC50/tgDHFR IC50) was 119.54.
In the case of `CCc1nc(N)nc(N)c1N1CCN(c2ccccc2)CC1` [Compound 28, 6-ethyl-5-(4-phenylpiperazin-1-yl)pyrimidine-2,4-diamine], the “Average DHFR selectivity (h/tg)” value ([1]; hDHFR IC50/tgDHFR IC50) is reported as 235.78.
In the case of `CC1CN(c2cnc(N)nc2N)CCN1c1cccc(-c2ccccc2)c1` (stereo not drawn) [Compound 26, 5-(4-([1,1′-biphenyl]-3-yl)-3-methylpiperazin-1-yl)pyrimidine-2,4-diamine], the “Average DHFR selectivity (h/tg)” value ([1]; hDHFR IC50/tgDHFR IC50) is reported as 14.96.
For `Nc1ncc(N2CCN(c3cccc(-c4cnccn4)c3)CC2)c(N)n1` [Compound 104, 5-(4-(3-(pyrazin-2-yl)phenyl)piperazin-1-yl)pyrimidine-2,4-diamine], the “tgDHFR pIC50-DHFR primary assay” value [1] was 7.99 and the “hDHFR pIC50-DHFR primary assay” value ([4]; Table 11) was 5.88.
`CCc1nc(N)nc(N)c1N1CCN(c2ccncc2)CC1` [Compound 36, 6-ethyl-5-(4-(pyridin-4-yl)piperazin-1-yl)pyrimidine-2,4-diamine] was tested, and the “Average DHFR selectivity (h/tg)” value ([1]; hDHFR IC50/tgDHFR IC50) was 110.92.
For `Cc1nc(N)nc(N)c1N1CCN(c2ccccc2)CC1` [Compound 47, 6-methyl-5-(4-phenylpiperazin-1-yl)pyrimidine-2,4-diamine], the “Average DHFR selectivity (h/tg)” value ([1]; hDHFR IC50/tgDHFR IC50) was 84.63.
For `CCc1nc(N)nc(N)c1N1CCN(c2ccccn2)CC1` [Compound 34, 6-ethyl-5-(4-(pyridin-2-yl)piperazin-1-yl)pyrimidine-2,4-diamine], the “Average DHFR selectivity (h/tg)” value ([1]; hDHFR IC50/tgDHFR IC50) was 158.49.
For `Nc1ncc(N2CCN(c3cccc(Br)c3)CC2)c(N)n1` [Compound 11, 5-(4-(3-bromophenyl)piperazin-1-yl)pyrimidine-2,4-diamine], the “Average DHFR selectivity (h/tg)” value ([1]; hDHFR IC50/tgDHFR IC50) was 37.15.
In the case of `Nc1ncc(N2CCN(c3cccc(-c4ccnnc4)c3)CC2)c(N)n1` [Compound 73, 5-(4-(3-(pyridazin-4-yl)phenyl)piperazin-1-yl)pyrimidine-2,4-diamine], the “tgDHFR pIC50-DHFR primary assay” value [1] is reported as 8.22 and the “hDHFR pIC50-DHFR primary assay” value ([4]; Table 11) is reported as 5.96.
With `Nc1ncc(N2CCN(c3cccc(C(F)(F)F)c3)CC2)c(N)n1` [Compound 3, 5-(4-(3-(trifluoromethyl)phenyl)piperazin-1-yl)pyrimidine-2,4-diamine] the “tgDHFR pIC50-DHFR primary assay” value [1] was 7.21 and the “hDHFR pIC50-DHFR primary assay” value ([4]; Table 11) was 6.27.
For `CCCc1nc(N)nc(N)c1N1CCN(c2ccccn2)CC1` [Compound 56, 6-propyl-5-(4-(pyridin-2-yl)piperazin-1-yl)pyrimidine-2,4-diamine], the “Average DHFR selectivity (h/tg)” value ([1]; hDHFR IC50/tgDHFR IC50) was 269.78.
`Nc1ncc(N2CCN(c3cccc(C4CC4)c3)CC2)c(N)n1` [Compound 66, 5-(4-(3-cyclopropylphenyl)piperazin-1-yl)pyrimidine-2,4-diamine] was tested, and the “tgDHFR pIC50-DHFR primary assay” value [1] was 7.54 and the “hDHFR pIC50-DHFR primary assay” value ([4]; Table 11) was 5.79.
In the case of `CCc1nc(N)nc(N)c1N1CCN(c2ccc(C)cn2)CC1` [Compound 45, 6-ethyl-5-(4-(5-methylpyridin-2-yl)piperazin-1-yl)pyrimidine-2,4-diamine], the “Average DHFR selectivity (h/tg)” value ([1]; hDHFR IC50/tgDHFR IC50) is reported as 136.15.
For `Nc1ncc(N2CCN(c3cccc(N4CCOCC4)c3)CC2)c(N)n1` [Compound 25, 5-(4-(3-morpholinophenyl)piperazin-1-yl)pyrimidine-2,4-diamine], the “Average DHFR selectivity (h/tg)” value ([1]; hDHFR IC50/tgDHFR IC50) was 105.15.
In the case of `Nc1ncc(N2CCN(c3cccc(-c4cncnc4)c3)CC2)c(N)n1` [Compound 74, 5-(4-(3-(pyrimidin-5-yl)phenyl)piperazin-1-yl)pyrimidine-2,4-diamine], the “tgDHFR pIC50-DHFR primary assay” value [1] is reported as 8.32 and the “hDHFR pIC50-DHFR primary assay” value ([4]; Table 11) is reported as 5.84.
`Nc1ncc(N2CCN(c3cccc(-c4cccc(F)c4)c3)CC2)c(N)n1` [Compound 64, 5-(4-(3′-fluoro-[1,1′-biphenyl]-3-yl)piperazin-1-yl)pyrimidine-2,4-diamine] was tested, and the “Average DHFR selectivity (h/tg)” value ([1]; hDHFR IC50/tgDHFR IC50) was 93.86.
For `Cc1cccc(N2CCN(c3cnc(N)nc3N)CC2)c1` [Compound 7, 5-(4-(m-tolyl)piperazin-1-yl)pyrimidine-2,4-diamine], the “tgDHFR pIC50-DHFR primary assay” value [1] was 7.12 and the “hDHFR pIC50-DHFR primary assay” value ([4]; Table 11) was 5.22.
With `Nc1ncc(N2CCN(c3cccc(-c4ncccn4)c3)CC2)c(N)n1` [Compound 103, 5-(4-(3-(pyrimidin-2-yl)phenyl)piperazin-1-yl)pyrimidine-2,4-diamine] the “tgDHFR pIC50-DHFR primary assay” value [1] was 7.56 and the “hDHFR pIC50-DHFR primary assay” value ([4]; Table 11) was 5.89.
For `CC1CN(c2cccc(-c3ccccc3)c2)CCN1c1cnc(N)nc1N` (stereo not drawn) [Compound 27, 5-(4-([1,1′-biphenyl]-3-yl)-2-methylpiperazin-1-yl)pyrimidine-2,4-diamine], the “Average DHFR selectivity (h/tg)” value ([1]; hDHFR IC50/tgDHFR IC50) was 218.78.
With `CCCc1nc(N)nc(N)c1N1CCN(c2ncc(C)cn2)CC1` [Compound 59, 5-(4-(5-methylpyrimidin-2-yl)piperazin-1-yl)-6-propylpyrimidine-2,4-diamine] the “Average DHFR selectivity (h/tg)” value ([1]; hDHFR IC50/tgDHFR IC50) was 118.81.
`COc1ncccc1-c1cccc(N2CCN(c3cnc(N)nc3N)CC2)c1` [Compound 80, 5-(4-(3-(2-methoxypyridin-3-yl)phenyl)piperazin-1-yl)pyrimidine-2,4-diamine] was tested, and the “Average DHFR selectivity (h/tg)” value ([1]; hDHFR IC50/tgDHFR IC50) was 165.32.
For `CNc1ncc(-c2cccc(N3CCN(c4cnc(N)nc4N)CC3)c2)cn1` [Compound 97, 5-(4-(3-(2-(methylamino)pyrimidin-5-yl)phenyl)piperazin-1-yl)pyrimidine-2,4-diamine], the “Average DHFR selectivity (h/tg)” value ([1]; hDHFR IC50/tgDHFR IC50) was 131.33.
In the case of `CCc1ncc(-c2cccc(N3CCN(c4cnc(N)nc4N)CC3)c2)cn1` [Compound 95, 5-(4-(3-(2-ethylpyrimidin-5-yl)phenyl)piperazin-1-yl)pyrimidine-2,4-diamine], the “Average DHFR selectivity (h/tg)” value ([1]; hDHFR IC50/tgDHFR IC50) is reported as 218.78 and the “Average DHFR selectivity (h/tb)*-DHFR IC50” value [3] is reported as 375.
`Nc1nc(N)c(N2CCN(c3ccccc3)CC2)c(CC2CC2)n1` [Compound 106] was tested, and the “Average DHFR selectivity (h/tg)” value ([1]; hDHFR IC50/tgDHFR IC50) was 218.96.
